The source of these data is PMC9239059, “Structure-Guided Synthesis of FK506 and FK520 Analogs with Increased Selectivity Exhibit In Vivo Therapeutic Efficacy against Cryptococcus” (mBio, 2022).

Values after ≈ are worked out from the molar mass of the structure shown.

Assay [1] relates to T1, Cryptococcus neoformans (H99).
T1 construct: H99
Briefly: microbe, parasite or virus in culture. More on the design: CLSI M27-A3 broth microdilution in RPMI 1640 at 37 C, growth inhibition of C. neoformans (MIC). The following applies: for MIC: Cryptococcus neoformans, read-out: MIC (μg/mL) against: / Cryptococcus neoformans (H99)^a. On the procedure: In vitro antifungal activities of FK506, FK520, and analogs were assessed in RPMI 1640 (Sigma-Aldrich) for all strains tested. MICs/minimum effective concentrations (MECs) for each drug were measured using modified Clinical and Laboratory Standards Institute (CLSI) M38-A2 and M27-A3 standard in vitro antifungal susceptibility protocols. Broth microdilution assays for MIC/MEC assessment were performed as described previously ([33]). All antifungal assays with C. neoformans were performed at 37°C. Antifungal susceptibility testing for C. albicans was performed in the presence of a uniform 1 μg/mL concentration of fluconazole to sensitize the organism to calcineurin inhibition. MICs/minimum effective concentrations (MECs) were determined for each of the novel analogs against the three major human fungal pathogens, A. fumigatus, C. neoformans, and C. albicans. […] Thus, analogs of FK506 and FK520 can tolerate up to 100-fold reduction in antifungal activity and still be considered for in vivo testing. For C. neoformans, MICs were the most uniform and ranged from 0.2 to 2 μg/mL, which is between 4- and 40-fold reduced for antifungal activity. C. albicans MICs ranged from 0.2 to 6.25 μg/mL, which is between 10- and 312.5-fold reduced for activity. Despite being one of the most difficult to treat fungal infections, all six analogs were active against A. fumigatus with MECs ranging from 1 to 2 μg/mL or a 62.5- to 125-fold reduction in activity.

The target of assay [2] is T2, FKBP12 (Candida albicans, UniProt C4YFI3+C4YS24+P28870).
T2 construct: gene RBP1; biotinylated (Avi-tagged) FKBP12; with CnA-CnB-calmodulin
Nature of the assay: BLI, compound-mediated ternary complex formation, […] compound. The format is binding.

Assay [3] concerns the target T3, FKBP12 (Aspergillus fumigatus, UniProt Q4WLV6).
T3 construct: gene fpr1A; biotinylated (Avi-tagged) FKBP12; with CnA-CnB-calmodulin
The description is as above. It is filed as binding.

T2 sequence (P28870 whole entry): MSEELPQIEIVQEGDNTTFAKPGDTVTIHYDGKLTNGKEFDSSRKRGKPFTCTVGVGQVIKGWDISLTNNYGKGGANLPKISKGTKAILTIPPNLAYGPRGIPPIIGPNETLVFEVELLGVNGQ
T2 sequence (C4YFI3 54-445): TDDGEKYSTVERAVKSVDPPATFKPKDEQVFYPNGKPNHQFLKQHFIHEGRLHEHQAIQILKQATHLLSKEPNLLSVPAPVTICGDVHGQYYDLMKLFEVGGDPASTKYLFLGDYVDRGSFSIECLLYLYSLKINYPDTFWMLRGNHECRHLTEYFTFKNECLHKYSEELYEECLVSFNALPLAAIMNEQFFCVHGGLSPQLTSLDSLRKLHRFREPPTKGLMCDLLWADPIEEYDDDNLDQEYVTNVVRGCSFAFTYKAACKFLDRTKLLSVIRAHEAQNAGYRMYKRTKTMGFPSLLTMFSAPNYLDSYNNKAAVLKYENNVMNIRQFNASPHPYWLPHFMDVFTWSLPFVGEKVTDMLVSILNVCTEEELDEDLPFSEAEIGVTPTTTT
T2 sequence (C4YS24 1-173): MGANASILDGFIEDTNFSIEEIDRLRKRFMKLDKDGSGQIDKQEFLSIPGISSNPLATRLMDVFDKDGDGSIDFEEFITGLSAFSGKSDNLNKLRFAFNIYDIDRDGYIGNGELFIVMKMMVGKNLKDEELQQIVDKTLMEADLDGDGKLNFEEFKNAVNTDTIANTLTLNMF
T2 sequence (P23286 whole entry partner): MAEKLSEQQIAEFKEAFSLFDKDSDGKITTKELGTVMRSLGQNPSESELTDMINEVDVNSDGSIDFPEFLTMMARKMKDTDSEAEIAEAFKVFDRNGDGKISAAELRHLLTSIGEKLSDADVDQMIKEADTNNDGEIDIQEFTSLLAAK
T3 sequence (Q4WLV6 whole entry): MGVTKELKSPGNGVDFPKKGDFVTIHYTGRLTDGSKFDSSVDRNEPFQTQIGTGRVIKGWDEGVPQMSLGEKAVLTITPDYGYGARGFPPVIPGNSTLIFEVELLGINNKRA
T3 sequence (Q4WUR1 whole entry partner): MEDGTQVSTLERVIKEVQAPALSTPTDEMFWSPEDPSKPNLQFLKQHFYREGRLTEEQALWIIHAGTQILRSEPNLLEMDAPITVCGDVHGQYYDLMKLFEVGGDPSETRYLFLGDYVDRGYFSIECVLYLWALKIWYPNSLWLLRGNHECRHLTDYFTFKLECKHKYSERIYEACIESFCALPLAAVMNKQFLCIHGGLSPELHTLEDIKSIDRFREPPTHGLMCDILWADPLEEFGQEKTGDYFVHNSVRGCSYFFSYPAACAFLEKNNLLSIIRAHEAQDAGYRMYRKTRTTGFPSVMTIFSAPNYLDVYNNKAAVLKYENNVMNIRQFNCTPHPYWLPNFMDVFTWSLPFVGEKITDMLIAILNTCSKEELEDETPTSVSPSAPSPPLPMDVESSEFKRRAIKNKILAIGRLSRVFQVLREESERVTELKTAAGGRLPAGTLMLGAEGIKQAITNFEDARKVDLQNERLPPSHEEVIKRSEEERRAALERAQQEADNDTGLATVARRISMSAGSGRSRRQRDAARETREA

On to `CC[C@@H]1/C=C(\C)C[C@H](C)C[C@H](OC)[C@H]2O[C@@](O)(C(=O)C(=O)N3CCCC[C@H]3C(=O)O[C@H](/C(C)=C/[C@@H]3CC[C@@H](O)[C@H](OC)C3)[C@H](C)[C@@H](O)CC1=O)[C@H](C)C[C@@H]2OC` [FK520], for which the “MIC (μg/mL) against: / Cryptococcus neoformans (H99)^a” value in assay [1] (inhibitor) came out at 0.05 µg/mL (≈ 0.0631 µM). Further, the “BLI, compound-mediated ternary complex formation, 10 μM compound” value (“BLI … 10 μM compound” for short) on FKBP12 [2] was “along with compounds FK506, APX879, FK520, JH-FK-02, and JH-FK-05”.
Turning to `C=CC[C@@H]1/C=C(\C)C[C@H](C)C[C@H](OC)[C@H]2O[C@@](O)(C(=O)C(=O)N3CCCC[C@H]3C(=O)O[C@H](/C(C)=C/[C@@H]3CC[C@@H](O)[C@H](OC)C3)[C@H](C)[C@@H](O)CC1=O)[C@H](C)C[C@@H]2OC` [FK506], the MIC in assay [1] came out at 0.05 µg/mL (≈ 0.0622 µM). In addition, the “BLI … 10 μM compound” value on FKBP12 [2] was “along with compounds FK506, APX879, FK520, JH-FK-02, and JH-FK-05”.
For `C=CC[C@@H]1/C=C(\C)C[C@H](C)C[C@H](OC)[C@H]2O[C@@](O)(C(=O)C(=O)N3CCCC[C@H]3C(=O)O[C@H](/C(C)=C/[C@@H]3CC[C@@H](O)[C@H](OC)C3)[C@H](C)[C@@H](O)C/C1=N/NC(=O)CC)[C@H](C)C[C@@H]2OC` [JH-FK-02], the “BLI … 10 μM compound” value at FKBP12 [3] and on FKBP12 [2] was “target complexes form in the presence of the analogs with affinities similar to those of the parent compounds” throughout. Besides, the MIC in assay [1] amounted to 2 µg/mL (≈ 2.29 µM).
